In patent US20130197073A1, “HYPOCHOLESTEROLEMIC, ANTI-INFLAMMATORY AND ANTIEPILEPTIC NEUROPROTECTIVE COMPOUND” (NEURON BIOPHARMA, S.A., priority 2010, published 2013):

Assays:
[1] = system: human neuroblastoma SK-N-MC cells; experiment: Protection against neuronal death induced by oxidative stress (xanthine/xanthine oxidase), WST-1; assay type: cell-based; details: NST0060 at 10 μM; 10 μM xanthine/60 mU/mL xanthine oxidase, 22 hours; protection significant from 1 to 40 μM
Method: The assay was performed on human neuroblastoma SK-N-MC cells in culture from the American Type Culture Collection (ATCC), in all cases strict rules of sterility were followed and the manipulation was performed in class II biological safety cabinets following European standard EN 12469. The cells were maintained in the following culture medium: Minimum Essential Medium Eagle (MEM) supplemented with 1 mM sodium pyruvate, 2 mM L-glutamine, 0.1 mM non-essential amino acids, 0.05 mg/ml gentamicin and 10% fetal bovine serum.
The inhibition caused by compound NST0060 with respect to cell death caused by treatment with xanthine/xanthine oxidase which generates oxidative damage (produces free radicals such as hydrogen peroxide, superoxide anion, hydroxyl radical), which triggers cell death, was analyzed. These cells, not exceeding 15 passages, were seeded on 96-well plates treated for adherent cells with a cell concentration of 5×10^4 cells/well; 3 wells of the plate were seeded for each assay condition. […]
The cells were incubated (at 37° C. and 5% CO2) with these treatments for 22 hours, after which time WST-1 reagent (Roche) was added. […] The formazan which is formed can be detected colorimetrically since it has an absorbance of 440 nm. The reading was taken in a plate reader at 440 nm 2 hours after adding the reagent.

[2] = system: caspase 3/7; experiment: Inhibition of activation of caspase 3/7 in camptothecin cell model of apoptosis; assay type: cell-based, human; details: Homo sapiens, 50 μM CPT 6 hours, read-out: inhibition of caspase 3/7 with respect to camptothecin
Method: The assay was performed on human neuroblastoma SK-N-MC cells in culture, maintained as described in section 2.1.
The induction of apoptosis on the cells in culture was performed with camptothecin (CPT), which triggers the activation of cell apoptosis. Apoptosis was quantified by means of the measurement of the activation of effector caspases, caspase 3 or caspase 7, for which a kit for the fluorometric detection of active caspase 3/7 (Apo-ONE® Homogeneous Caspase-3/7, Promega) was used. Active caspases 3 or 7 of the cells cause the rupture of a substrate, which leads to fluorescence emission, which is read by means of a fluorometer. The effect of the pretreatment of compound NST0060 at 10 and 40 μM on the activation of caspase 3/7 produced by 50 μM of camptothecin (CPT) in the SK-N-MC cells was thus analyzed. These cells, not exceeding 15 passages, were seeded on 96-well plates treated for adherent cells with a cell concentration of 5×10^4 cells/well; 3 wells of the plate were seeded for each assay condition.
After 24 hours of cell incubation (at 37° C. and 5% CO2), the pretreatment with NST0060 at 10 and 40 μM was performed.
The cells were incubated (at 37° C. and 5% CO2) with these treatments for 6 hours, after which cell lysis buffer and the caspase substrate at the concentrations specified by the manufacturer were added; it was incubated at room temperature for 30 minutes and then frozen at −20° C. overnight. Fluorescence was measured the next day (499/521 nm, Exci/Emi).

[3] = system: TNFα; experiment: LPS model of systemic inflammation in mice, plasma TNFα, NST0060 compared with simvastatin; assay type: in vivo; details: two i.p. doses of 50 mg/kg (lactone forms); 2 hours after LPS 8 mg/kg i.p.
From the text: The investigators considered necessary to evaluate alternative activities with respect to hypocholesterolemic and neuroprotective activities given the characteristics and properties of the molecule. […] To evaluate this activity, a model of systemic shock in mice induced by lipopolysaccharide (LPS), a component of the gram negative bacteria structure that induces a cytokine-mediated, mainly TNFα-mediated, inflammatory response was used.
(§1) All the animals included during the experimental process were 12-week old male C57BL6 mice. The experiments were carried out strictly complying with the standard entitled Guidance on the Operation of Animals (Scientific Procedures, Act. 1986). The animals were subjected to their respective quarantine period and were treated with maximum precaution to minimize possible contaminations during treatments and handling.
In both cases 0.5% methyl cellulose in physiological saline, which was administered to mice in the control group with the same administration regimen, was used as a vehicle. Peripheral systemic inflammation was induced one hour after the last treatment by means of a single i.p. injection of LPS at 8 mg/kg. Two hours later blood was taken and plasma was obtained, which was used to evaluate the anti-inflammatory effect by analyzing plasma concentrations of TNFα by means of ELISA.

[4] = system: zebrafish (Danio rerio, AB strain) embryos; experiment: Zebrafish embryo acute toxicity, percentage of healthy larvae; details: mean±SD
[5] = system: FVB/NHan mice; experiment: Death caused by acute administration of kainate in mice, survival; assay type: in vivo; details: 50 mg/kg i.p. at 24 and 0.5 hours before KA 25 mg/kg and daily up to 7 days; p<0.05
Method: as §1, with “males from the FVB/NHan strain.” for “male C57BL6 mice.”, “inoculations” for “treatments”
The animals were intraperitoneally inoculated with 25 mg/kg of kainate (KA) dissolved in PBS. Fourteen animals were pretreated at 24 and 0.5 hours before inoculation with KA and subsequently on a daily basis up to 7 days post-inoculation by means of intraperitoneal injection with 0.25% methyl cellulose in PBS as a vehicle (vehicle+KA administration regimen) and 14 were pretreated at 24 and 0.5 hours before inoculation with KA and subsequently on a daily basis up to 7 days post-inoculation by means of intraperitoneal injection with compound NST0060 at a dose of 50 mg/kg (NST0060+KA administration regimen). After inoculation, the animals were individually housed in trays to monitor them.

## CCCC(CCC)C(=O)O[C@H]1C[C@@H](C)C=C2C=C[C@H](C)[C@H](CC[C@@H]3C[C@@H](O)CC(=O)O3)[C@H]21 [NST0060, 2-propylpentanoic acid (1S,3R,7S,8S,8aR)-1,2,3,7,8,8a-hexahydro-3,7-dimethyl-8-[2-[(2R,4R)-tetrahydro-4-hydroxy-6-oxo-2H-pyran-2-yl]ethyl]-1-naphthalenyl ester]
[1]
  maximum protection against cell death caused by XXO: 80%
[2]; pretreatment 24 h at 10 μM
  inhibition at 10 µM: 58%
[2]; pretreatment 24 h at 40 μM
  inhibition at 40 µM: 32%
[3]
  TNFα plasma levels with respect to the control group: large decrease in said levels that is significant with respect to the control group
  TNFα plasma levels with respect to the simvastatin group: statistically significant TNFα plasma level reductions with respect to the group of simvastatin
[4]; dose of 1 mg/Kg
  percentage of healthy larvae: 100±0.0%
[4]; dose of 3 mg/Kg
  percentage of healthy larvae: 86.7±6.2%
[5]
  mortality caused by KA: reduces mortality observed in a statistically significant manner
